Assay results reported in patent US7943606B2, “Compositions and methods to control abnormal cell growth” (CanCure Laboratories, LLC, priority 2005, dated 2011).

Legend:
[1] = tested on: cancer cells; assay: Induction of cancer cell death by quaternary nitrogen dyes compared with CCDTHT; type: cell-based
Source text: Despite these observations, for the purpose of embodiments of the invention, the thioxanthene or thioxanthone moiety may be replaced with any other heterocyclic moiety to which it is feasible to attach at least one quaternary nitrogen group with three substituents that together are capable of inhibiting the transport of external choline into cells and thereby inhibit cell proliferation.

[2] = tested on: MXT tumor; assay: MXT mouse mammary tumor model: tumor volume and survival; type: in vivo; conditions: for Tumor volume, Day 7: start of treatment
Source text: Tumors were developed in first generation hybrid BDF1 (C57 B1 female×DBA/2 male) adult female mice kept at specified pathogen free (SPF) hygienic level. Suspensions of HL-60 human leukemia cells, or approximately 0.1 cm^3 volume of tumor tissue derived from HT-168 human melanoma, PC-3 human prostate adenocarcinoma, T47D human breast carcinoma, MXT mouse mammary cancer, or mouse B16 melanoma cells were implanted subcutaneously to develop the tumors. After 12-18 days when the tumor-bearing mice were first treated, the size of the tumors was in the 0.2-0.4 cm^3 range. All compounds used were dissolved in physiological (0.9%) saline (NaCl), and the agents, alone or in combinations, were applied subcutaneously or intraperitoneally in 50 μl volume. Tumor volume was determined by calipers in three dimensions; this technique is well known to one having ordinary skill in the art. Tumor volume was calculated according to the generally accepted formula: V=a^2×b×π/6, where “a” and “b” mean the shortest and longest diameter, respectively, of the measured tumor.
The mouse mammary MXT tumor was developed as described above. On day 7 after transplantation of tumor cells, the animals were either remained untreated (group 1) or were treated with 2 mg/kg of CisPt alone (Group 2), or 4 mg/kg of CisPt alone (Group 3), or 4.6 mg/kg of CCDTHT alone (Group 4), or 2 mg/kg of CisPt+4.6 mg/kg of CCDTHT (Group 5), or 4 mg/kg of CisPt+4.6 mg/kg of CCDTHT (Group 6). CCDTHT and CisPt were administered subcutaneously and intraperitoneally, respectively, once daily for 10 days, including a 2-day rest period after 5 days of treatment (i.e., the last treatment was on day 19). Each group consisted of 7 animals, and the mean values±std. dev. for tumor volumes and body weight are shown in TABLE 4 and TABLE 5, respectively. While in this tumor model CCDTHT alone reduced the tumor volume less effectively than in the human tumor models, it clearly added to the tumor volume-reducing effect of CisPt (TABLE 4). A dramatic reduction in tumor volume was particularly evident in Group 6 (4 mg/kg CisPt+4.6 mg/kg CCDTHT).
(§1) The mouse mammary MXT tumor model was developed and treated as described above. On day 7 the animals were either remained untreated (Group 1) or were treated with 3 mg/kg of CisPt (Group 2) or 3 mg/kg of CisPt+15 mg/kg of highly purified PALP (Group 3). CisPt and PALP were administered intraperitoneally and subcutaneously, respectively, seven times on every second day (i.e., treatments were terminated on day 21). Each group included 7 animals; the mean values±std. dev. for tumor volumes and body weight are shown in TABLE 6 and TABLE 7, respectively.
The mouse mammary MXT tumor model was developed and treated as described above. On day 7 the animals either remained untreated (Group 1) or were treated with 3 mg/kg CisPt (Group 2), 3 mg/kg CisPt+4.6 mg/kg of CCDTHT (Group 3), or 3 mg/kg CisPt+4.6 mg/kg of CCDTHT+15 mg/kg highly purified PALP (Group 4). CisPt was administered intraperitoneally 9-times once every second day; CCDTHT was administered for 15 days once daily; and PALP was administered 3 times every 3rd day. In each group 7 mice were included. The mean values±std. dev. for tumor volumes and body weights are shown in TABLE 9 and TABLE 10, respectively.

[3] = Body weight of animals in the MXT tumor model; type: in vivo, mouse; conditions: for Body weight, Day 7: start of treatment
Procedure: The mouse mammary MXT tumor was developed as described above. […] CCDTHT and CisPt were administered subcutaneously and intraperitoneally, respectively, once daily for 10 days, including a 2-day rest period after 5 days of treatment (i.e., the last treatment was on day 19). Each group consisted of 7 animals, and the mean values±std. dev. for tumor volumes and body weight are shown in TABLE 4 and TABLE 5, respectively.
as §1, with “On day 7 the animals were either remained untreated (Group 1) or were treated with 3 mg/kg of CisPt (Group 2) or 3 mg/kg of CisPt+15 mg/kg of highly purified PALP (Group 3).” left out
The mouse mammary MXT tumor model was developed and treated as described above. […] In each group 7 mice were included. The mean values±std. dev. for tumor volumes and body weights are shown in TABLE 9 and TABLE 10, respectively.

[4] = Example 31, CisPt 2 mg/kg i.p. and/or CCDTHT 4.6 mg/kg s.c., once daily
[5] = Example 31, CisPt 2 mg/kg i.p. and/or CCDTHT 4.6 mg/kg s.c.
[6] = Example 31, CisPt 4 mg/kg i.p. without or with CCDTHT 4.6 mg/kg s.c., once daily
[7] = Example 31, CisPt 4 mg/kg i.p. without or with CCDTHT 4.6 mg/kg s.c.
[8] = Example 32, CisPt 3 mg/kg i.p. without or with PALP 15 mg/kg s.c., every second day
[9] = Example 32, CisPt 3 mg/kg i.p. without or with PALP 15 mg/kg s.c.
[10] = Example 34, CisPt 3 mg/kg i.p. every second day, CCDTHT 4.6 mg/kg once daily, PALP 15 mg/kg every 3rd day
[11] = Example 34, CisPt 3 mg/kg i.p., CCDTHT 4.6 mg/kg, PALP 15 mg/kg

C[N+](C)=c1ccc2nc3c(ccc4ccccc43)oc-2c1.[Cl-].[Cl-].[Cl-].[Zn+2] [meldola blue]
inducing cancer cell death, compared with CCDTHT [1]: ineffective or less effective

N.N.[Cl][Pt][Cl] [CisPt, Cisplatin]
survival ([2]; Example 31, CisPt 2 mg/kg and/or CCDTHT 4.6 mg/kg (groups 2, 4, 5)): 32.7 ± 6.2 days | Tumor volume, Day 14 [2, 4]: 3.34 ± 1.04 cm^3 | Tumor volume, Day 18 [2, 4]: 5.37 ± 0.68 cm^3 | Tumor volume, Day 21 [2, 4]: 6.23 ± 0.86 cm^3 | Tumor volume, Day 7 [2, 5]: 0.46 ± 0.08 cm^3 | Tumor volume, Day 14 [2, 6]: 1.77 ± 0.40 cm^3 | Tumor volume, Day 18 [2, 6]: all dead | Tumor volume, Day 21 [2, 6]: all dead | Tumor volume, Day 7 [2, 7]: 0.45 ± 0.10 cm^3 | survival ([2]; Example 31, CisPt 4 mg/kg without or with CCDTHT 4.6 mg/kg (groups 3, 6)): 18.1 ± 0.7 days | Tumor volume, Day 11 [2, 8]: 1.45 ± 0.22 cm^3 | Tumor volume, Day 16 [2, 8]: 4.53 ± 1.00 cm^3 | Tumor volume, Day 21 [2, 8]: 5.86 ± 1.38 cm^3 | Tumor volume, Day 7 [2, 9]: 0.38 ± 0.01 cm^3 | survival ([2]; Example 32, CisPt 3 mg/kg without or with PALP 15 mg/kg): 31.1 ± 6.2 days | survival time ([2]; Example 34, CisPt 3 mg/kg alone or with CCDTHT 4.6 mg/kg + PALP 15 mg/kg): 34 days | Tumor volume, Day 11 [2, 10]: 1.92 ± 0.67 cm^3 | Tumor volume, Day 15 [2, 10]: 3.80 ± 1.30 cm^3 | Tumor volume, Day 21 [2, 10]: 6.64 ± 1.28 cm^3 | Tumor volume, Day 7 [2, 11]: 0.36 ± 0.12 cm^3 | Body weight, Day 14 [3, 4]: 22.9 ± 0.87 g | Body weight, Day 18 [3, 4]: 22.3 ± 1.02 g | Body weight, Day 21 [3, 4]: 21.2 ± 1.31 g | Body weight, Day 7 [3, 5]: 22.4 ± 0.73 g | Body weight, Day 14 [3, 6]: 19.4 ± 1.05 g | Body weight, Day 18 [3, 6]: all dead | Body weight, Day 21 [3, 6]: all dead | Body weight, Day 7 [3, 7]: 22.5 ± 0.92 g | Body weight, Day 11 [3, 8]: 23.1 ± 0.52 g | Body weight, Day 16 [3, 8]: 20.9 ± 0.65 g | Body weight, Day 21 [3, 8]: 19.2 ± 0.66 g | Body weight, Day 7 [3, 9]: 22.7 ± 0.37 g | Body weight, Day 11 [3, 10]: 23.10 ± 1.40 g | Body weight, Day 15 [3, 10]: 22.9 ± 1.00 g | Body weight, Day 21 [3, 10]: 20.6 ± 1.80 g | Body weight, Day 7 [3, 11]: 22.2 ± 1.10 g

celestine blue
inducing cancer cell death, compared with CCDTHT [1]: ineffective or less effective

CN(C)c1ccc2nc3ccc(=[N+](C)C)c([N+](=O)[O-])c-3sc2c1.[Cl-] [methylene green]
inducing cancer cell death, compared with CCDTHT [1]: ineffective or less effective

CN(C)c1ccc2cc3ccc(=[N+](C)C)cc-3oc2c1.[Cl-] [pyronin]
inducing cancer cell death, compared with CCDTHT [1]: ineffective or less effective

CN(C)c1ccc(C(=C2C=CC(=[N+](C)C)C=C2)c2ccc([N+](C)(C)C)cc2)cc1.[Cl-].[Cl-] [methyl green]
inducing cancer cell death, compared with CCDTHT [1]: ineffective or less effective

CN(C)c1ccc2nc3ccc(=[N+](C)C)cc-3sc2c1 [methylene blue]
inducing cancer cell death, compared with CCDTHT [1]: ineffective or less effective

CN(C)c1ccc2nc3c(C(=O)O)cc(=O)c(O)c-3oc2c1.Cl [gallocyanine]
inducing cancer cell death, compared with CCDTHT [1]: ineffective or less effective
